Results: ChEMBL document CHEMBL1201862, “PubChem BioAssay data set” (2004)
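How tested: cells in 96-well plates exposed to compound for 48 hours at five concentrations. GI50 is the concentration that inhibits growth by half.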 Active and inactive are the calls of the source. Rule as the data show it: active = GI50 up to about 1.1 µM and inactive = higher.

What was measured:
Assay in all cases: NCI tumour cell line growth inhibition, 48 h
[1] = test system: SNB-75
[2] = test system: RXF 393
[3] = test system: SF-539
[4] = test system: U-251
[5] = test system: SNB-19
[6] = test system: CAKI-1
[7] = test system: MDA-N
[8] = test system: HCC 2998
[9] = test system: HCT-15
[10] = test system: RPMI-8226
[11] = test system: HT-29
[12] = test system: M14
[13] = test system: SF-295
[14] = test system: NCI-H460
[15] = test system: SN12C
[16] = test system: HOP-92
[17] = test system: UO-31
[18] = test system: TK-10
[19] = test system: COLO 205
[20] = test system: CCRF-CEM

Measured: GI50

Oc1ccc(NCc2cc(O)ccc2O)cc1
inactive: [1] 17.2 µM | [2] 15.3 µM | [3] 23.2 µM | [4] 15.7 µM | [5] 18.5 µM | [6] 16 µM | [7] 3.17 µM | [8] 16.9 µM | [10] 4.99 µM | [11] 22.6 µM | [12] 17.8 µM | [13] 20.7 µM | [14] 18.5 µM | [15] 15.3 µM | [16] 13.1 µM | [17] 14.1 µM | [18] 16 µM | [19] 23.3 µM
15.6 µM: [9]

Nc1ncnc2c1nc(Cl)n2C1OC(CO)C(O)C1O (stereo not drawn)
active: [2] 0.213 µM | [8] 0.556 µM | [20] 0.607 µM | [11] 0.649 µM | [12] 0.9 µM | [14] 0.414 µM | [17] 0.906 µM | [18] 0.502 µM | [19] 1.11 µM
inactive: [1] 1.49 µM | [3] 4.69 µM | [4] 7.59 µM | [5] 22.1 µM | [6] 1.21 µM | [7] 2.94 µM | [10] 1.44 µM | [13] 5.11 µM | [15] 1.88 µM | [16] 9.08 µM
0.283 µM: [9]

COc1ccc2nc(-c3cccc(N(C)C)c3)cc(O)c2c1
active: [1] 0.299 µM | [2] 0.173 µM | [3] 0.151 µM | [4] 0.247 µM | [5] 0.451 µM | [6] 0.327 µM | [7] 0.0608 µM | [8] 0.608 µM | [20] 0.255 µM | [10] 0.318 µM | [11] 0.198 µM | [13] 0.246 µM | [14] 0.348 µM | [15] 0.353 µM | [16] 0.469 µM | [17] 0.782 µM | [19] 0.198 µM
0.317 µM: [9]
inactive: [18] 4.74 µM

CC1=NN=C(C)C1/N=N/c1ccc2[nH]c(C)nc2c1
6.68 µM: [9]
inactive: [1] 22.9 µM | [2] 5.16 µM | [3] 26.9 µM | [4] 34.6 µM | [5] > 100 µM | [6] 5.02 µM | [7] 19.8 µM | [8] 58.7 µM | [20] 32.3 µM | [10] 13.7 µM | [11] 16 µM | [12] 23.1 µM | [13] 17.9 µM | [14] 11 µM | [15] > 52 µM | [16] 14.8 µM | [17] 19.2 µM | [18] 14.1 µM | [19] 29.6 µM

NC1=NN(c2ccccc2)C2(O)c3ccncc3C3=NN(c4ccccc4)C(=O)C132 (stereo not drawn)
inactive: [1] > 100 µM | [2] > 100 µM | [3] > 100 µM | [4] > 100 µM | [5] > 100 µM | [6] > 100 µM | [7] > 100 µM | [8] > 100 µM | [20] > 10 µM | [10] > 100 µM | [11] > 100 µM | [12] > 100 µM | [13] > 100 µM | [14] > 100 µM | [15] > 100 µM | [16] > 100 µM | [17] > 100 µM | [19] > 100 µM
> 100 µM: [9]

O=C(O)c1cc2ccccc2c(O)c1O
inactive: [1] 17.9 µM | [2] 17.3 µM | [3] 22.8 µM | [4] 16.8 µM | [5] 17.9 µM | [6] 17.3 µM | [7] 2.14 µM | [8] 18.8 µM | [20] 5.75 µM | [10] > 52.2 µM | [11] 23.2 µM | [12] 4.79 µM | [13] 15.3 µM | [14] 22.9 µM | [15] 16.6 µM | [16] > 40.1 µM | [17] 20.5 µM | [18] 21.9 µM | [19] 16.8 µM
19.7 µM: [9]

NCCCN(CCCN)CCc1cn(C(=O)c2ccccc2)cn1
7.78 µM: [9]
inactive: [1] 6.07 µM | [2] 2.97 µM | [3] 13.2 µM | [4] 14.4 µM | [5] 15.1 µM | [6] 4.46 µM | [7] 9.1 µM | [8] 4.52 µM | [20] 2.17 µM | [10] 2.38 µM | [11] 11.9 µM | [12] 4.94 µM | [13] 12.7 µM | [14] 15.7 µM | [15] 6.41 µM | [16] 4.05 µM | [18] 5.33 µM | [19] 3.14 µM

CNC(=O)C1CCCN1C(=O)C(Cc1c[nH]cn1)NC(=O)C1CCC(=O)N1 (stereo not drawn)
> 100 µM: [9]
inactive: [1] > 100 µM | [2] > 100 µM | [4] > 100 µM | [5] > 100 µM | [6] > 100 µM | [7] > 100 µM | [8] > 100 µM | [20] > 100 µM | [10] > 100 µM | [11] > 100 µM | [12] > 100 µM | [13] > 100 µM | [14] > 100 µM | [15] > 100 µM | [16] > 100 µM | [17] > 100 µM | [18] > 100 µM | [19] > 100 µM

O=C1C(N2CCCC2)=CC(=O)c2c(O)c(N3CCCC3)c(Cl)c(O)c21
inactive: [1] > 10 µM | [2] > 10 µM | [3] > 10 µM | [4] > 10 µM | [5] > 10 µM | [6] > 10 µM | [7] > 10 µM | [8] > 10 µM | [20] > 10 µM | [10] > 10 µM | [11] > 10 µM | [12] > 10 µM | [13] > 10 µM | [14] > 10 µM | [15] > 10 µM | [16] > 10 µM | [17] > 10 µM | [18] > 10 µM | [19] > 10 µM

Cn1cnnc1SC(F)(F)c1nc2ccccc2o1
> 100 µM: [9]
inactive: [1] > 100 µM | [2] > 100 µM | [3] > 100 µM | [4] > 100 µM | [6] > 100 µM | [7] > 100 µM | [8] > 100 µM | [20] > 100 µM | [10] > 100 µM | [11] > 100 µM | [12] > 100 µM | [13] > 100 µM | [14] > 100 µM | [15] > 100 µM | [16] > 100 µM | [17] > 100 µM | [18] > 100 µM | [19] > 100 µM

Cc1cccc(C2ON=C(c3ccccc3)N2C23CC4CC(CC(C4)C2)C3)c1 (stereo not drawn)
> 10 µM: [9]
inactive: [1] 7.28 µM | [2] > 10 µM | [3] > 10 µM | [4] > 10 µM | [5] > 10 µM | [6] > 10 µM | [7] > 10 µM | [8] > 10 µM | [20] > 10 µM | [10] > 10 µM | [11] > 10 µM | [12] > 10 µM | [13] > 10 µM | [14] > 10 µM | [15] > 10 µM | [16] > 10 µM | [18] > 10 µM | [19] > 10 µM

CC(C)(C)[Si](C)(C)OCC#C[C@@]1(O)CCCCC1CC(Sc1ccccc1)Sc1ccccc1 (stereo partly drawn)
14.9 µM: [9]
inactive: [1] 14.8 µM | [2] 12.5 µM | [4] 13.3 µM | [5] 15.4 µM | [6] 10.7 µM | [7] 18.2 µM | [8] 15.6 µM | [20] 11.8 µM | [10] 15.3 µM | [11] 14 µM | [12] 18.2 µM | [13] 14.7 µM | [14] 15.2 µM | [15] 11.6 µM | [16] 15.6 µM | [17] 13.9 µM | [18] 17.9 µM | [19] 16.3 µM

COc1ccc(CNC(=O)[C@H](Cc2ccc(O)cn2)NC(C)=O)cc1OC
> 100 µM: [9]
inactive: [1] > 100 µM | [2] > 100 µM | [3] > 100 µM | [4] > 100 µM | [5] > 100 µM | [6] > 100 µM | [7] > 100 µM | [8] > 100 µM | [20] > 100 µM | [10] > 100 µM | [11] > 100 µM | [12] > 100 µM | [13] > 100 µM | [14] > 100 µM | [15] > 100 µM | [16] > 100 µM | [17] > 100 µM | [18] > 100 µM | [19] > 100 µM

Cc1nnc(N)nc1/C=C/c1c(O)ccc2ccccc12
17.3 µM: [9]
inactive: [2] 15.6 µM | [4] 38.7 µM | [5] 27 µM | [6] 36.4 µM | [7] 28.9 µM | [8] 19.1 µM | [20] 15.5 µM | [10] 30.5 µM | [11] 27 µM | [12] 19.4 µM | [13] 18.6 µM | [14] 24.5 µM | [15] 37.5 µM | [16] 21.3 µM | [17] 18.8 µM | [18] 54.8 µM | [19] 44.4 µM

c1ccc(/N=c2/sc3ccccc3s/c2=N/c2ccccc2)cc1
1.75 µM: [9]
inactive: [1] 2.82 µM | [2] 1.82 µM | [3] 1.88 µM | [4] 1.86 µM | [5] 4.71 µM | [6] 1.87 µM | [7] 1.61 µM | [8] 1.84 µM | [20] > 100 µM | [10] 4.57 µM | [11] 2.08 µM | [13] 3.76 µM | [14] 1.96 µM | [15] 1.75 µM | [16] 2 µM | [17] 1.58 µM | [18] 4.08 µM | [19] 1.92 µM
